In PubChem BioAssay (NCI):
“And” between values parts separate entries of the source, which are not always exact repeats. Identical values can stand only once.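 Cells were grown in 96-well plates and exposed to each compound for 48 hours at five concentrations; endpoints were interpolated linearly between bracketing concentrations, or set to the highest concentration if not reached. GI50 is the concentration that inhibits growth by half. TGI denotes the concentration required for complete inhibition of growth.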

Columns and labels:
Assay in all cases: DTP human tumour cell line panel, 48 h
786-0 renal = tested on: 786-0 renal
IGROV1 ovarian = tested on: IGROV1 ovarian
OVCAR-4 ovarian = tested on: OVCAR-4 ovarian
OVCAR-5 ovarian = tested on: OVCAR-5 ovarian
SK-MEL-28 melanoma = tested on: SK-MEL-28 melanoma
SNB-19 CNS = tested on: SNB-19 CNS
UO-31 renal = tested on: UO-31 renal
MCF7 breast = tested on: MCF7 breast
MDA-MB-231 breast = tested on: MDA-MB-231 breast
NCI/ADR-RES ovarian = tested on: NCI/ADR-RES ovarian

Compound	TGI (786-0 renal) [µM]	TGI (IGROV1 ovarian) [µM]	TGI (OVCAR-4 ovarian) [µM]	TGI (OVCAR-5 ovarian) [µM]	TGI (SK-MEL-28 melanoma)	TGI (SNB-19 CNS) [µM]	TGI (UO-31 renal) [µM]	TGI (MCF7 breast) [µM]	TGI (MDA-MB-231 breast) [µM]	TGI (NCI/ADR-RES ovarian) [µM]	GI50 (786-0 renal) [µM]	GI50 (IGROV1 ovarian) [µM]	GI50 (MCF7 breast) [µM]	GI50 (MDA-MB-231 breast) [µM]	GI50 (NCI/ADR-RES ovarian) [µM]	GI50 (OVCAR-4 ovarian) [µM]	GI50 (OVCAR-5 ovarian) [µM]	GI50 (SK-MEL-28 melanoma) [µM]	GI50 (SNB-19 CNS) [µM]	GI50 (UO-31 renal) [µM]
Cc1cc(Cc2cc(C)c(NC(=O)C(=O)C3C(=O)NC(=S)NC3=O)c(C(C)C)c2)cc(C(C)C)c1NC(=O)C(=O)C1C(=O)NC(=S)NC1=O	> 100	> 100	> 100	> 100	> 100 µM	> 100	> 100													
Cc1ccc(NC(=O)CC(=O)n2nc(-c3ccccc3)c(N=Nc3ccc(Cl)cc3)c2-c2ccccc2)cc1	45.2	> 100	> 100	> 100	> 100 µM	> 100	> 100													
CO[C@H]1[C@H](O)[C@H](O[C@H]2CC[C@@]3(C)[C@H](CC[C@@H]4[C@@H]3CC[C@]3(C)[C@@H](C5=CC(=O)OC5)CC[C@]43O)C2)O[C@@H](C)[C@@H]1O	0.000687		0.000626		0.00622 µM and < 0.0227 µM	0.00324	0.00201	0.0288	0.00907	0.00115										
CC12O[C@H](c3ccccc3)[C@H](c3ccccc3)N1C(=O)C1(C(=O)OCc3ccccc3)CC12 (some centres undefined)	> 100	> 100	> 100	> 100		> 100	> 100													
NC1=NC(c2ccccc2)N=C(Nc2ccccc2)N1 (centres undefined)	> 100	> 100	> 100	> 100	> 100 µM	> 100		> 100	> 100	> 100	> 100	39.4	38.5	> 100	> 100	> 100	> 100	> 100	> 100	
CCOC(OCC)C(CC)[Se]c1ccccc1[N+](=O)[O-] (centres undefined)	> 46.7	> 100	> 100	> 100	> 100 µM	> 94.5	> 100		> 100											
O=C([O-])c1ccc2c(c1)-c1nc-2nc2[n-]c(nc3nc(nc4[n-]c(n1)c1ccc(C(=O)[O-])cc41)-c1cc(C(=O)[O-])ccc1-3)c1ccc(C(=O)[O-])cc21.[Fe+2]	> 50	> 50	> 50	> 50	> 50 µM	> 50	> 50				> 30.7	> 50				49.2	> 50	> 50	> 50	> 50
N/N=C1\c2ccccc2C2/C(=N\N)c3ccccc3C12 (centres undefined)	> 100	> 100	> 100	> 100	> 100 µM	> 100														
O=C1CC2CCCCC2=C1O (centres undefined)	> 100	> 100	> 100	> 100	> 100 µM	> 100	> 100													
N#CC1C(=N)Cc2ccccc2-c2ccccc21 (centres undefined)	35.2		> 100	> 100	30.3 µM	> 100	31.2	80.1	35	28.9	9.66		4.2	8.88	3.33	18	9.04	6.36	9.44	4.06
COc1ccc(NC(=O)C(=O)NNC(=O)c2sc(NNC(C)=O)nc2C)c([N+](=O)[O-])c1	> 100		> 100	> 100	> 100 µM	> 100	> 100													
CC1CCCC(C(O)CC2CC(=O)N(c3ccccc3)C(=O)C2)C1=O (centres undefined)	> 100	> 100	> 100	> 100	> 100 µM	> 100	> 100													
Cc1c(O)c(=O)ccn1C1OC(CO)C(O)C1O (centres undefined)	> 100		> 100	> 100	> 100 µM	> 100	> 100													
Cn1cc2c(n1)c(N/N=C/c1ccccc1)nn1nnnc21	> 100	> 100	> 100		> 100 µM	> 100	> 100													
CCCCn1c2c(c3ccccc3c1=O)C(=O)c1ccccc1-2	> 100	> 100	38.4	> 100	> 100 µM		> 100	> 100	> 100	> 100										
N#C/C(=C/c1cccnc1)C(=O)c1ccccc1	> 100		> 100	> 100	> 100 µM	> 100	> 100													
COc1ccc2nc(NCCCNCCO)c3sc4ccc(F)cc4c(=O)c3c2c1	2.82	2.63	3.43	2.87	3.21 µM	3.2	2.8	3.53	2.84		1.38	1.25	1.79	1.43		1.76	1.5	1.78	1.7	1.46
Cc1cc(N(CCC#N)CCC#N)ccc1/C=C(\NC(=O)/C=C/c1ccccc1)NC(=O)Nc1ccc(Cl)cc1	> 100	> 100	> 100	> 100	> 100 µM	> 100	> 100													
C/C(=N\NC(=O)CC(=O)Nc1ccc(Cl)cc1)c1cc2ccccc2oc1=O	> 100	> 100			> 100 µM	> 100	> 100													
N#C/C(=C\c1ccc(Br)cc1)n1nnc2cccc(F)c21	2.93		3.49	3.48	3.97 µM	3.35	2.72	1.98	3.46	2.19	1.48		0.445	1.63	0.398	1.65	1.77	1.87	1.63	1.41
CCCCCCCCCCCCCC/C(C(=O)OC)=C(/O)C(=O)OCC	38.2	> 100	> 100	70.1	50.8 µM	> 100	53.5													
